“And” between values parts separate entries of the source, which are not always exact repeats. Equal values may be shown once.
Legend:
[1] = 101 kPa, Liquid; for speed of sound: Linear variable-path acoustic interferometer; for mass density: Pycnometric method
[2] = xn = mol fraction of the nth substance listed; settings: 101 kPa, Liquid; for speed of sound: Linear variable-path acoustic interferometer; for mass density: Pycnometric method

Nc1cccc(Cl)c1 [3-chlorobenzenamine]
[1]
Settings	mass density	speed of sound
303.15 K	1205.3 kg/m3	1517 m/s
313.15 K	1196.1 kg/m3 and 1196 kg/m3	1484 m/s and 1486 m/s
323.15 K	1186.6 kg/m3	1452 m/s

Nc1ccccc1Cl [2-chlorobenzeneamine]
[1]
Settings	mass density [kg/m3]	speed of sound [m/s]
303.15 K	1202.7	1470
313.15 K	1193	1438
323.15 K	1183.3	1402

Nc1cccc(Cl)c1 [3-chlorobenzenamine] + C1CCOC1
[2]
Settings	mass density, 303.15 K [kg/m3]	mass density, 313.15 K [kg/m3]	mass density, 323.15 K [kg/m3]	speed of sound, 303.15 K [m/s]	speed of sound, 313.15 K [m/s]	speed of sound, 323.15 K [m/s]
x2 = 0	1205.3	1196	1186.6	1517	1486	1452
x2 = 0.0728	1189.4	1180.6	1171.5	1500	1468	1436
x2 = 0.1321	1175.7	1167.1	1157.9	1487	1455	1424
x2 = 0.2389	1149.7	1140.6	1131.3	1465	1432	1400
x2 = 0.3272	1126.8	1117	1107.4	1446	1412	1380
x2 = 0.4116	1102.9	1093.2	1083.3	1427	1392	1360
x2 = 0.5161	1071.3	1061.4	1051.5	1403	1366	1333
x2 = 0.6297	1033.5	1023.9	1014.3	1373	1336	1301
x2 = 0.7419	992	982.7	973.7	1341	1302	1266
x2 = 0.8633	941.6	932.3	923.4	1302	1260	1222

C1CCOC1 [tetrahydrofuran] + Nc1cccc(Cl)c1
[2], x1 = 1
Settings	mass density [kg/m3]	speed of sound [m/s]
303.15 K	876.9	1254
313.15 K	865.7	1207
323.15 K	854.8	1165

Nc1ccccc1Cl [2-chlorobenzeneamine] + C1CCOC1
[2]
Settings	mass density, 303.15 K [kg/m3]	mass density, 313.15 K [kg/m3]	mass density, 323.15 K [kg/m3]	speed of sound, 303.15 K [m/s]	speed of sound, 313.15 K [m/s]	speed of sound, 323.15 K [m/s]
x2 = 0	1202.7	1193	1183.3	1470	1438	1402
x2 = 0.0695	1187.6	1177.4	1167.9	1461	1427	1395
x2 = 0.1543	1167.6	1157.7	1148.6	1450	1415	1383
x2 = 0.2423	1146	1136.3	1127	1436	1401	1369
x2 = 0.3275	1124.2	1114.5	1105	1422	1386	1353
x2 = 0.4213	1098.7	1088.7	1079.1	1404	1367	1333
x2 = 0.5259	1067.6	1057.4	1047.5	1383	1344	1308
x2 = 0.6325	1032	1021.8	1012.2	1359	1319	1281
x2 = 0.744	990.1	980.1	971	1331	1289	1250
x2 = 0.8663	938.4	928.5	920	1296	1252	1212

CC(C)OC(C)C [diisopropyl ether]
[1]
Settings	mass density [kg/m3]	speed of sound [m/s]
303.15 K	712.9	976
313.15 K	702.9	932
323.15 K	691.9	889

CC(C)OC(C)C [diisopropyl ether] + Nc1cccc(Cl)c1
[2], x1 = 1
Settings	mass density [kg/m3]	speed of sound [m/s]
303.15 K	712.9	976
313.15 K	702.9	932
323.15 K	691.9	889

C1CCOC1 [tetrahydrofuran]
[1]
Settings	mass density [kg/m3]	speed of sound [m/s]
303.15 K	876.9	1254
313.15 K	865.7	1207
323.15 K	854.8	1165

Nc1cccc(Cl)c1 [3-chlorobenzenamine] + CC(C)OC(C)C
[2]
Settings	mass density, 303.15 K [kg/m3]	mass density, 313.15 K [kg/m3]	mass density, 323.15 K [kg/m3]	speed of sound, 303.15 K [m/s]	speed of sound, 313.15 K [m/s]	speed of sound, 323.15 K [m/s]
x2 = 0	1205.3	1196.1	1186.6	1517	1484	1452
x2 = 0.0619	1171.2	1163.2	1154.7	1484	1451	1418
x2 = 0.1302	1134.1	1126.7	1118.2	1448	1414	1380
x2 = 0.2031	1095.7	1088.2	1079.3	1410	1374	1340
x2 = 0.2827	1055.1	1047.4	1038	1368	1331	1295
x2 = 0.3716	1011.3	1003.4	993.6	1321	1283	1246
x2 = 0.4676	965	957.2	947.6	1270	1230	1192
x2 = 0.5803	911.2	903.7	894.5	1209	1168	1129
x2 = 0.7235	842.6	835.3	826.7	1132	1089	1048
x2 = 0.8428	785.4	777.7	768.7	1066	1023	981

C1CCOC1 [tetrahydrofuran] + Nc1ccccc1Cl
[2], x1 = 1
Settings	mass density [kg/m3]	speed of sound [m/s]
303.15 K	876.9	1254
313.15 K	865.7	1207
323.15 K	854.8	1165

From the NIST ThermoML archive (doi:10.1016/j.tca.2011.07.005)
